Measured values published in paper PMC9848473 (Science Advances, 2023).
Values belong to the compound of their own block, whether it stands above or below them.

Key:
[1] = molecular target: T1, RelBs^NTD2:DarB2 complex (DarB:RelBs^NTD) (Bacillus subtilis, UniProt O54408); assay: stopped-flow FRET, Kd = koff/kon; type: binding; details: read-out: Kd^MANT-ATP
T1 construct: gene relA; heterotetramer of Rel residues 1 to 373 with full-length DarB, His10-SUMO tags cleaved, complex purified by size exclusion chromatography; with CBS domain-containing protein YkuL
T1 sequence (O54408 1-373): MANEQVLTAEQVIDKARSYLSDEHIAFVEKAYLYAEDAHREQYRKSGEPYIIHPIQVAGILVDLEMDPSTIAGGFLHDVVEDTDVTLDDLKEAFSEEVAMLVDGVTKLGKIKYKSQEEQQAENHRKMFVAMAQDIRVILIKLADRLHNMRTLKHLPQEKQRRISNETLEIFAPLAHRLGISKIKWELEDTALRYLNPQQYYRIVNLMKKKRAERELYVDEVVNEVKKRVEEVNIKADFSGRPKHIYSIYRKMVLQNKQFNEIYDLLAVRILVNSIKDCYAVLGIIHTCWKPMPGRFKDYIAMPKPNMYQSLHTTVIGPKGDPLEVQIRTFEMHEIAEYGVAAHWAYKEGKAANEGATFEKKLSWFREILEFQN
T1 sequence (O31698 whole entry, further chain, the tested form may be a part): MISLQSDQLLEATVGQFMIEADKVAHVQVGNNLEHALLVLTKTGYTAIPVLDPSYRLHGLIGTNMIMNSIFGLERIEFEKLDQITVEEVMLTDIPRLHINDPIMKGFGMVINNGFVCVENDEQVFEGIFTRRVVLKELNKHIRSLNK

RelBs^NTD = molecular target: T2, RelBs^NTD (Bacillus subtilis, UniProt O54408); assay: isothermal titration calorimetry; type: binding; details: 25°C; pH 7.5; 10 mM MgCl2
T2 construct: gene relA; N-terminal domain region, residues 1 to 373 (HD, SYNTH and core domains), His10-SUMO tag cleaved with Ulp1, from E. coli BL21(DE3)
T2 sequence (O54408 1-373): as the sequence (O54408 1-373) above

[2] = molecular target: T1, RelBs^NTD2:DarB2 complex (DarB:RelBs^NTD); assay: isothermal titration calorimetry; type: binding
DarB = DarB (Bacillus subtilis, UniProt O31698); assay: biochemical
Chain of DarB (O31698 whole entry): as the sequence (O31698 whole entry, further chain, the tested form may be a part) above

Kd [1]: 308 µM
Compound: CNc1ccccc1C(=O)O[C@H]1[C@@H](O)[C@H](n2cnc3c(N)ncnc32)O[C@@H]1CO[P@@](=O)(O)O[P@](=O)(O)OP(=O)(O)O (mixture of isomers) [MANT-ATP]

Compound: Nc1ncnc2c1ncn2[C@@H]1O[C@H](COP(=O)(O)CP(=O)(O)OP(=O)(O)O)[C@@H](O)[C@H]1O [APCPP, adenosine-5′-[(α,β)-methyleno]triphosphate]
isothermal titration calorimetry (RelBs^NTD): RelBs^NTD alone has low affinity to APCPP (Fig. 5G)
Kd ([2]; read-out: Kd^APCPP): 115 µM

Kd (DarB): 0.0457 µM
Compound: Nc1ncnc2c1ncn2[C@@H]1O[C@@H]2COP(=O)(O)O[C@H]3[C@@H](O)[C@H](n4cnc5c(N)ncnc54)O[C@@H]3COP(=O)(O)O[C@H]2[C@H]1O [c-di-AMP]

Kd ([2]; read-out: Kd): 8.2 µM
Compound: Nc1nc2c(ncn2[C@@H]2O[C@H](COP(=O)(O)OP(=O)(O)OP(=O)(O)O)[C@@H](OP(=O)(O)OP(=O)(O)O)[C@H]2O)c(=O)[nH]1 [pppGpp]
